Measurements from ChEMBL document CHEMBL1133785, “Design, synthesis, and biological evaluation of HIV/FIV protease inhibitors incorporating a conformationally constrained macrocycle with a small P3' residue” (Bioorg Med Chem Lett, 2001).
Starred links: 1 amine or outer side, 2 acyl side, 3 side chain; linkers in the order of their positions; H or OH if unused. Non-standard residues stand in square brackets, D forms with d. Residues, ends and D or L forms follow the SMILES beside them. β3hPhe(2R-OH) = O=C([C@H](O)[C@H](Cc1ccccc1)N[*:1])[*:2]

Experiments:
[1] = tested on: Feline immunodeficiency virus; assay: Inhibitory concentration against wild-type feline immunodeficiency virus (FIV-WT) protease at a concentration of 200 uM; assay type: functional
[2] = target: T1, Human immunodeficiency virus type 1 protease (Human immunodeficiency virus 1, UniProt Q72874); assay: Inhibitory concentration against wild-type human immunodeficiency virus (HIV-WT) protease
[3] = tested on: Feline immunodeficiency virus; assay: Inhibitory concentration against Feline immunodeficiency virus (FIV) protease; assay type: functional
[4] = target: T2, Human immunodeficiency virus type 1 protease (Human immunodeficiency virus 1, UniProt Q72874, F53L); assay: Inhibitory concentration against TL3-resistant HIV(F53L) mutant protease; conditions: pooled result: one value given for 5 cell lines, strains, targets or settings
[5] = target: Human immunodeficiency virus type 1 protease (Human immunodeficiency virus 1, UniProt Q72874, V82A); assay: Inhibitory concentration against TL3-resistant HIV(V82A) mutant
[6] = target: T3, Human immunodeficiency virus type 1 protease (Human immunodeficiency virus 1, UniProt Q72874, V82F); assay: Inhibitory concentration against drug-resistant HIV(V82F) mutant protease
[7] = target: T4, Human immunodeficiency virus type 1 protease (Human immunodeficiency virus 1, UniProt Q72874, G48V); assay: Inhibitory concentration against drug-resistant HIV(G48V) mutant protease
[8] = target: T1, Human immunodeficiency virus type 1 protease; assay: Inhibitory concentration against human immunodeficiency virus (HIV) protease
[9] = tested on: Feline immunodeficiency virus; assay: Inhibitory concentration against wild-type feline immunodeficiency virus (FIV-WT) protease; assay type: functional
[10] = target: T2, Human immunodeficiency virus type 1 protease; assay: Inhibitory concentration against TL3-resistant HIV(F53L) mutant
[11] = target: Human immunodeficiency virus type 1 protease (Human immunodeficiency virus 1, UniProt Q72874, L63P); assay: Inhibitory concentration against TL3-resistant HIV(L63P) mutant
[12] = target: T1, Human immunodeficiency virus type 1 protease; assay: Inhibitory concentration against TL3-resistant HIV(M461) mutant
[13] = target: T1, Human immunodeficiency virus type 1 protease; assay: Inhibitory concentration against TL3-resistant HIV(V771) mutant
[14] = target: T3, Human immunodeficiency virus type 1 protease; assay: Inhibitory concentration against drug-resistant HIV(V82F) mutant
[15] = target: T4, Human immunodeficiency virus type 1 protease; assay: Inhibitory concentration against drug-resistant HIV(G48V) mutant
[16] = target: T1, Human immunodeficiency virus type 1 protease; assay: Inhibitory concentration against TL3-resistant HIV(L241) mutant

Structure (SMILES)	inhibition at 200 µM [1] [%]	IC50 [2] [nM]	IC50 [3] [nM]	IC50 [5] [nM]	IC50 [8] [nM]	IC50 [9] [nM]	further results
CC(C)[C@@H]1NC(=O)[C@@H](NC(=O)[C@H](O)[C@H](Cc2ccccc2)NC(=O)OC(C)(C)C)Cc2ccc(cc2)OCCCNC1=O	43	630					
CC(=O)N[C@@H](Cc1ccccc1)C(=O)N[C@H](C(=O)N[C@@H](Cc1ccccc1)[C@@H](O)C(=O)N[C@H]1Cc2ccc(cc2)OCCCNC(=O)[C@H](C(C)C)NC1=O)C(C)C			35	12	7		IC50 [4]: 79 nM; IC50 [6]: 32 nM; IC50 [7]: 94 nM
CC(=O)N[C@@H](Cc1ccc(O)cc1)C(=O)N[C@H](C(=O)N[C@@H](Cc1ccccc1)[C@@H](O)C(=O)N[C@@H](Cc1ccc(O)cc1)C(=O)N[C@H](C(N)=O)C(C)C)C(C)C (Ac-YV[β3hPhe(2R-OH)]YV-NH2)		212				560	
CC(=O)N[C@@H](Cc1ccc(O)cc1)C(=O)N[C@H](C(=O)N[C@@H](Cc1ccccc1)[C@@H](O)C(=O)N[C@H]1Cc2ccc(cc2)OCCCNC(=O)[C@H](C(C)C)NC1=O)C(C)C			27	11	6		IC50 [10]: 70 nM; IC50 [11]: 70 nM; IC50 [12]: 70 nM; IC50 [13]: 70 nM; IC50 [14]: 26 nM; IC50 [15]: 57 nM; IC50 [16]: 70 nM
CC(C)[C@@H]1NC(=O)[C@@H](NC(=O)C(=O)C(Cc2ccccc2)NC(=O)OC(C)(C)C)Cc2ccc(cc2)OCCCNC1=O (stereo partly specified)		13				4000	
CC(=O)N[C@@H](Cc1c[nH]c2ccccc12)C(=O)N[C@H](C(=O)N[C@@H](Cc1ccccc1)[C@@H](O)C(=O)N[C@H]1Cc2ccc(cc2)OCCCNC(=O)[C@H](C(C)C)NC1=O)C(C)C			49	10	10		IC50 [4]: 49 nM; IC50 [6]: 30 nM; IC50 [7]: 71 nM
CC(C)[C@@H]1NC(=O)[C@@H](NC(=O)[C@@H](O)[C@H](Cc2ccccc2)NC(=O)OC(C)(C)C)Cc2ccc(cc2)OCCCNC1=O		100				46000	
COC(=O)[C@H](O)[C@H](Cc1ccccc1)NC(=O)[C@@H](NC(=O)[C@H](Cc1c[nH]c2ccccc12)NC(C)=O)C(C)C		14000				66000	
COC(=O)[C@H](O)[C@H](Cc1ccccc1)NC(=O)[C@@H](NC(=O)[C@H](Cc1ccccc1)NC(C)=O)C(C)C	24	113000					
COC(=O)[C@H](O)[C@H](Cc1ccccc1)NC(=O)[C@@H](NC(=O)[C@H](Cc1ccc(O)cc1)NC(C)=O)C(C)C	32	71000					
